“Also recorded” adds a separate entry of the source. Like-named read-outs stand apart in the source and are kept apart here. Where no end group is shown, it is not given here.
Legend:
[1] = test system: supercoiled plasmid DNA (pBR322); experiment: DNA gel shift assay (agarose gel electrophoresis); format: binding; settings: 5-25 μM ligand, 15 minutes, pBR322, 10 mM Tris pH 8.0
Description: DNA Gel Shift Assays. The affinity of EuP3, EuP2, and each free peptide for supercoiled plasmid DNA was examined by agarose gel electrophoresis. Plasmid (pBR322, New England Biolabs, Inc.) was incubated for 15 minutes at room temperature with increasing concentrations of each ligand (5-25 μM), prior to the addition of loading dye. Each lane contained 1 μg plasmid (50 μM base pairs) in 10 mM Tris buffer at pH 8.0.

[2] = Hydrolysis of bis-nitrophenylphosphate (BNPP) followed spectrophotometrically; format: biochemical; settings: 37° C., BNPP 500 μM
Description: Hydrolytic Phosphate Cleavage. Because the EF-Hand is physiologically strictly a structural motif, an isolated Ca-binding loop's ability to affect hydrolytic cleavage was addressed. The hydrolysis of bis-nitrophenylphosphate (BNPP) was followed spectrophotometrically under turnover conditions. The absorbance increase at 400 nm due to liberated 4-nitrophenolate was observed over the initial 10-14 hours of the reaction (<10% BNPP converted). […] Plots of absorbance vs. time were converted to concentration units (ε=18,500 M^−1 cm^−1) to give first order rate constants (Sardesai et al., 1994).

[3] = cited from earlier work
[4] = test system: supercoiled, double-stranded DNA; experiment: Cleavage of supercoiled plasmid monitored by agarose gel electrophoresis; format: biochemical
Description: The conversion of supercoiled plasmid (type I) to open circular (type II), linear (type III), or smaller fragments was monitored by agarose gel electrophoresis. Because the synthetic peptides bind strongly to DNA, thus preventing the observation of products, the peptides were chelated prior to electrophoresis (Falke et al., 1994). At the point each reaction was quenched (0.1 M EDTA), a suspension of neutral, washed, cation resin (Amberlyst, 10-20 μL) was incubated with each sample for 30 minutes, spun down, and the supernatent loaded into wells. After 24 hours of reaction (incubated at 37° C.), the concentration-dependent formation of open circular plasmid was observed. […] Over a 10-300 μM EuP3 gradient, nicking occurred from 10-150 μM, with the greatest amount of cleavage at 30 μM EuP3.
Sequence Selective DNA Cleavage. […] This cleavage is not dependent on the strain inherent in supercoiled plasmid, as cleavage of linearized ^32P-labeled DNA oligonucleotides was observed as well. Labeled fragments were incubated with Ce(NH3)6(NO3)4 and varying concentrations of peptides P3 or P3W at 37° C. overnight and analyzed by acrylamide gel electrophoresis. Cleavage was concentration dependent, and distinct between metallopeptides.

[5] = test system: T1, P3 (engrailed HTH / consensus EF-hand chimeric peptide) (synthetic construct); experiment: EMSA; settings: Eu(III) complex EuP3; agarose gel shift, estimate from quantified band volumes; 10 mM Tris pH 8.0, room temp
T1 sequence: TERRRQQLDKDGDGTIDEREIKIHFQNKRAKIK

[6] = T1-weighted MR imaging of phantoms at 1.5 tesla; settings: 1.5 T, HEPES buffer pH 7.4, ambient temperature
Description: FIG. 6. T1-weighted MR images at 1.5 tesla of phantoms in HEPES buffer, pH 7.4, ambient temperature. (A) 3D SPGR TR=40, TE=3.1, α=75°. Images: a) HEPES; b) 80 μM P3W; c) 80 μM DNA (14-mer duplex); d) 115 μM GdDTPA; e) 115 μM GdDTPA+DNA (1:1); f) 8.6 μM GdP3W+DNA (1:1); g) 86 μM GdP3W; h) 86 μM GdP3W+DNA (1:1); i) 86 μM GdP3W+DNA (1:1)+NaCl (150 μM). (B) 3D SPGR TR=40, TE=4.0, α=40°. Images: a) HEPES, b) 48 μM GdDTPA, c) 48 μM GdP3W; d) 48 μM GdP3W+DNA.
(§1) P3W peptide ([…], Gd-binding EF-hand site is shaded) was synthesized and purified (>95% by HPLC) by the Caltech Peptide Synthesis Facility, Pasadena, Calif. The gadolinium complex was prepared by dissolving P3W in 50 mM HEPES buffer, pH 7.4, and adding 0.8 equivalents Gd(NO3)3 to give a 500 μM stock solution. Peptide concentration was estimated by absorbance (ε280=7290 M^−1cm^−1); the absence of uncomplexed Gd^3+ was confirmed by colorometric analysis with xylenol orange. All Gd concentrations were determined by ICP-MS (Agilent 7500). Relaxation rates were determined at 20 and 60 MHz, 37° C. using Broker NMS 120 and Brtiker mg60 Minispec spectrometers, respectively. NMRD profiles were recorded on a Koenig-Brown field cycling relaxometer; phantoms were imaged on a GE 1.5T clinical imager.

[7] = test system: 14-mer d.s. DNA: self-complementary 5′-GAGCTAATTAGCTC-3′; experiment: Relaxivity in the presence of one equivalent DNA; format: physicochemical; settings: 37° C., 50 mM HEPES, pH 7.4, one equivalent DNA
Description: as §1

[8] = Relaxivity (water proton relaxation) without DNA; format: physicochemical; settings: 37° C., 50 mM HEPES, pH 7.4
Description: as §1

[9] = target: P4a (chimeric peptide: alpha2 and alpha3 of engrailed, minus the last turn of alpha2 and the beta-turn, with calmodulin loop I); experiment: measured dissociation constants for EuP4a; method not stated; self-association in the presence of Eu(III)
[10] = 10 μM Eu/10 μM peptide, pH 7.7, 10 mM Tris buffer
[11] = 25 μM Eu/25 μM peptide, pH 7.7, 10 mM Tris buffer
[12] = 25 μM Eu/50 μM peptide, pH 7.7, 10 mM Tris buffer

Question: What does the source list for `[Cl][Eu]([Cl])[Cl]` [EuCl3, reference compound]?
Answer: gel shift / DNA affinity (in words) [1]: not; Rates (K(obs)) of BNPP cleavage ([2]; 10 μM Eu/0 peptide, pH 7.7, 5 mM Tris buffer): 5.2 ± 0.6 s^−1 × 10^7; Rates (K(obs)) of BNPP cleavage ([2]; 12 μM Eu/0 peptide, pH 7.7, 5 mM Tris buffer): 5.7 ± 0.3 s^−1 × 10^7

Question: For Gd-TREN-1-Me=3,2-HOPO, which relaxivity ([3]; 20 MHz and 37° C.) is on record?
Answer: 6 to 11 mM⁻¹ s⁻¹

Question: Which results are given for “EuP3: Eu(III) metallopeptide of P3 (TERRRQQLDKDGDGTIDEREIKIHFQNKRAKIK)”?
Answer: gel shift / DNA affinity (in words) [1]: gel shift and disappearance of type I plasmid occurs; also recorded: DNA-binding affinity in the micromolar regime; Rates (K(obs)) of BNPP cleavage [2, 10]: 6.0 s^−1 × 10^7; Rates (K(obs)) of BNPP cleavage [2, 11]: 7.3 s^−1 × 10^7; Rates (K(obs)) of BNPP cleavage [2, 12]: 20.6 s^−1 × 10^7; Rates (K(obs)) of BNPP cleavage ([2]; 50 μM Eu/50 μM peptide, pH 7.7, 5 mM Tris buffer): 17.5 ± 4 s^−1 × 10^7; Rates (K(obs)) of BNPP cleavage ([2]; 50 μM Eu/100 μM peptide, pH 7.7, 5 mM Tris buffer): 11.5 ± 4 s^−1 × 10^7; dependence of cleavage activity on increasing concentration [4]: falls off with increasing concentration; concentration range in which nicking occurred ([4]; 10-300 μM EuP3 gradient): 10 to 150 µM; concentration with the greatest amount of cleavage ([4]; 10-300 μM EuP3 gradient): 30 µM; cleavage of supercoiled DNA (in words) ([4]; 37° C.): catalyzes the cleavage of supercoiled, double-stranded DNA

Question: With “EuP4a: Eu(III) metallopeptide of P4a (TERRRFDKDGNGYISAAELRHVKIWFQNKRAKIK)” as the molecule, how does the “Rates (K(obs)) of BNPP cleavage” value [2, 10] read?
Answer: 11.3 s^−1 × 10^7

Question: What about the “Rates (K(obs)) of BNPP cleavage” value [2, 11] of the same molecule?
Answer: 56.3 s^−1 × 10^7

Question: And the “Rates (K(obs)) of BNPP cleavage” value [2, 12]?
Answer: 62.0 s^−1 × 10^7

Question: And the “Rates (K(obs)) of BNPP cleavage” value ([2]; 50 μM Eu/50 μM peptide, pH 7.7, 10 mM Tris buffer)?
Answer: 149.5 s^−1 × 10^7

Question: And the “Rates (K(obs)) of BNPP cleavage” value ([2]; 50 μM Eu/100 μM peptide, pH 7.7, 10 mM Tris buffer)?
Answer: 212.0 s^−1 × 10^7

Question: What about the “dependence of cleavage activity on increasing concentration” value [4] of the same molecule?
Answer: does not

Question: With pBR322 supercoiled plasmid as the molecule, how does the Kd [5] read?
Answer: 20 µM

Question: Which results are given for `O=C([O-])CN(CCN(CC(=O)[O-])CC(=O)O)CCN(CC(=O)[O-])CC(=O)O.[Gd+3]` [GdDTPA]?
Answer: signal / contrast in T1-weighted image, with DNA (1:1) [6]: did not increase the signal; signal / contrast in T1-weighted image, without DNA [6]: difficult to discern; r1 + DNA ([7]; 20 MHz): 4.9 mM⁻¹ s⁻¹; r1 + DNA ([7]; 60 MHz): 3.5 mM⁻¹ s⁻¹; r1 ([8]; 20 MHz): 4.6 mM⁻¹ s⁻¹; r1 ([8]; 60 MHz): 3.5 mM⁻¹ s⁻¹

Question: Which relaxivity ([3]; 60 MHz) does the source give for `O=C([O-])CN(CCN(CC(=O)[O-])C[C@H](COP(=O)([O-])OC1CCC(c2ccccc2)(c2ccccc2)CC1)N(CC(=O)[O-])CC(=O)[O-])CC(=O)[O-].[Gd+3].[H+].[H+].[H+]` [MS-325] here?
Answer: 23 mM⁻¹ s⁻¹

B1: P4a (chimeric peptide: alpha2 and alpha3 of engrailed, minus the last turn of alpha2 and the beta-turn, with calmodulin loop I) (peptide)
peptide: TERRRFDKDGNGYISAAELRHVKIWFQNKRAKIK
modifications: also: Eu(III) complex
Question: For B1, which Kdim (dimerization constant) [9] is on record?
Answer: > 300 µM
